These results are taken from publication PMC11013945, “Antiprotozoal Activity of Plants Used in the Management of Sleeping Sickness in Angola and Bioactivity-Guided Fractionation of Brasenia schreberi J.F.Gmel and Nymphaea lotus L. Active against T. b. rhodesiense” (Molecules, 2024).

Broadly, the IC50 is the concentration that inhibits the measured activity by half. A word on the inhibition: it is the percentage by which the read-out fell short of the control.

Each structure is given as a SMILES string. In brackets after ≈: the same amount, converted by molar mass.

One test concerns leishmania. Details: method as in PMID 16643059. The conditions noted are these: cited from earlier work.
A further test concerns T. cruzi. Nature of the test: In vitro growth inhibition of T. cruzi intracellular amastigotes grown in L6 rat myoblasts. The following applies: Table 4, pure compounds; for IC50: Trypanosoma cruzi, Myoblast, mean of two independent experiments. It is filed as cell-based, Trypanosoma cruzi. The method, then: (§1) In vitro growth inhibitory activity of the extracts and pure compounds against T. cruzi (intracellular amastigote forms grown in L6 rat myoblasts), L. donovani (axenic amastigote forms in acidic medium or intracellular amastigotes in mouse primary macrophages), and P. falciparum (erythrocytic stages in culture) was determined as described previously. Testing against intracellular L. donovani was performed as follows: mouse peritoneal macrophages (4 × 104 in 100 µL RPMI 1640 medium with 10% heat-inactivated FBS) in 96-well plates were infected with amastigotes (2 × 105 in 100 µL medium). After 24 h, the medium was exchanged twice to remove free amastigotes. Test compounds were added, and the plates incubated for 96 h at 37 °C under 5% CO2. Then, the medium was removed, the cells were fixed with 50 µL 4% formaldehyde, and stained with 5 µM DRAQ5. Nine images were taken per well on a ImageXpress XLS (MD) microscope (Molecular Devices, San Jose, CA, USA) using a 20× air objective (635 nm excitation: 690/50 emission) and analyzed with a script developed on Meta Xpress (MD). Cytotoxicity against L6 cells was assessed by using a similar protocol as outlined for IC50 determination with T. b. rhodesiense, except that rat skeletal myoblasts (L6 cells) were used. The medium was RPMI 1640 medium supplemented with 1% L-glutamine (200 mM) and 10% fetal bovine serum. Reference compounds were melarsoprol for T. b. rhodesiense, benznidazole for T. cruzi, miltefosine for L. donovani, chloroquine and artesunate for P. falciparum, and podophyllotoxin for L6 cells.

For the next test, the system named is L. donovani. Kind of test: In vitro growth inhibition of L. donovani axenic amastigotes. The test is classed as cell-based, Leishmania donovani. The conditions noted are these: Table 4, pure compounds; for IC50: Leishmania donovani, axenic amastigote. How it is done:
as §1

The subject of test [1] is P. falciparum. Nature of the test: In vitro growth inhibition of P. falciparum erythrocytic stages. It is filed as cell-based, Plasmodium falciparum. The following applies: Table 4, pure compounds; for IC50: Plasmodium falciparum. How it is done: as §1
For a further test, the system named is L6 cells. Nature of the test: Cytotoxicity against L6 cells. It is filed as cell-based. The conditions noted are these: Rattus norvegicus, Table 4, pure compounds. The method, then: as §1
Test [2] concerns T. b. rhodesiense STIB 900. Nature of the test: IC50 determination against T. b. rhodesiense, serial dilutions, Alamar blue. It is filed as cell-based, Trypanosoma brucei rhodesiense. The following applies: Table 4, pure compounds; for IC50: Trypanosoma brucei. In general terms: Alamar Blue is a resazurin reagent that responds to reducing activity.
The subject of the next test is epimastigote T. cruzi. Details: method as in PMID 27347554. The conditions noted are these: read-out: IC50 against epimastigote T. cruzi; cited from earlier work.
The subject of test [3] is P. falciparum. Details: method as in PMID 29333044. The following applies: isolated from Alectryon serratus leaves; cited from earlier work.
The test system of test [4] is sn-glycerol-3-phosphate oxidase system of T. b. brucei. The conditions noted are these: in vitro; cited from earlier work.
The subject of test [5] is intracellular L. donovani. Kind of test: Intramacrophage assay, intracellular L. donovani amastigotes in mouse peritoneal macrophages. The test is classed as cell-based. The conditions noted are these: Leishmania donovani, Macrophage. The method, then: as §1, with “Reference compounds were melarsoprol for T. b. rhodesiense, benznidazole for T. cruzi, miltefosine for L. donovani, chloroquine and artesunate for P. falciparum, and podophyllotoxin for L6 cells.” left out

The test system of test [6] is Trypanosoma brucei rhodesiense STIB900. Nature of the test: Growth inhibition (GI) of T. b. rhodesiense bloodstream forms at a single concentration, Alamar blue. The conditions noted are these: read-out: Growth inhibition (%). It is filed as cell-based. The method, then: A total of 122 extracts were prepared from different parts of the nine plant species. Each plant part was extracted consecutively with hexane, dichloromethane, ethanol, methanol, and water. The extracts were tested for their in vitro growth inhibition (GI) activity against bloodstream forms of Trypanosoma brucei rhodesiense STIB900, our reference strain for drug testing against African trypanosomes at a concentration of 20 µg/mL. […] A detailed description of the plant species, the parts extracted, solvent, extraction yield, and percentage of growth inhibition (GI%) is given in Supplementary Table S1.
Growth inhibition (GI) activity against T. b. rhodesiense STIB 900 was determined as follows: in a 96-well microtiter plate, 50 µL of HMI-9 medium supplemented with 15% heat-inactivated horse serum were added to each well. A total of 10 µL of the plant extract stock solution was added to each well. Then, 50 µL of bloodstream-form trypanosomes were added, adjusted with a cell counter (CASY, Schärfe System, Germany) to 4 × 10^4 cells/mL. […] Then, the plate was read with a Spectramax Gemini XS microplate fluorometer (Molecular Devices Corporation, Sunnyvale, CA, USA) using an excitation wavelength of 530 nm and an emission wavelength of 590 nm. Fluorescence was expressed as percentage of the untreated control. […]

Where [7] appears, read: mean of two independent experiments.

Take `C=CCCC/C=C\C/C=C\CCCCCCCc1cc(O)cc(O)c1` [5-heptadeca-8′Z,11′Z,16-trienylresorcinol]: the IC50 against leishmania in the test on leishmania was 3.6 µg/mL (≈ 10.5 µM).

As for `CCOC(=O)c1cc(O)c(O)c(O)c1` [Ethyl gallate (4), ethyl gallate], in the test with T. cruzi, the “T. cruzi SI” value came to 0.9 and the half-inhibitory concentration (IC50) is 16 µg/mL (≈ 80.7 µM). In addition, in the test on L. donovani, the IC50 was found to be 6.8 µg/mL (≈ 34.3 µM) and the “L. donovani SI” value is 2.2. Besides, in the test with P. falciparum [1], the 50% inhibitory concentration (IC50) was 2.1 µg/mL (≈ 10.6 µM), the “P. falciparum IC50” value came out at 3.0 µg/mL and the “P. falciparum SI” value came to 4.9. In addition, it took 15 µg/mL (≈ 75.7 µM) to reach half-maximal inhibition in the test with L6 cells (IC50). Moreover, the “T. b. rhodesiense SI” value in test [2] came out at 25. For the same compound, in test [2] (setting [7]), the “T. b. rhodesiense IC50” value was 0.6 µg/mL and the 50% inhibitory concentration (IC50) was determined as 0.5 µg/mL (≈ 2.52 µM). Further, the IC50 in the test on epimastigote T. cruzi was over 100 µM.

On to `O=C(O)c1cc(O)c(O)c(O)c1` [Gallic acid (1), gallic acid], for which the “T. cruzi SI” value in the test on T. cruzi came out at 0.2. Further, the IC50 was 66 µg/mL (≈ 388 µM) with T. cruzi; 56 µg/mL (≈ 329 µM) in the test on L. donovani; over 10 µg/mL in the test with P. falciparum [1]; 16 µg/mL (≈ 94.1 µM) with L6 cells; 0.5 µg/mL (≈ 2.94 µM) in [2] (setting [7]); over 100 µM in the test with epimastigote T. cruzi. In the test with L. donovani, the “L. donovani SI” value is given as 0.3. Besides, in test [2], the “T. b. rhodesiense SI” value amounted to 34. For the same compound, the “IC50 against P. falciparum” value with P. falciparum [3] was 0.0013 µg/mL (≈ 0.00764 µM). For the same compound, the “inhibition of sn-glycerol-3-phosphate oxidase system” value in [4] is “inhibited”.

Take `O=c1c(O)c(-c2ccc(O)c(O)c2)oc2c(O)c(O[C@@H]3O[C@H](CO)[C@@H](O)[C@H](O)[C@H]3O)cc(O)c12` [Gossypetin-7-O-β-glucopyranoside (6), gossypetin-7-O-β-glucopyranoside]: in the test on T. cruzi, the “T. cruzi SI” value turned out to be 0.8. Further, the IC50 came out at 12 µg/mL (≈ 25 µM) in the test with T. cruzi, 53 µg/mL (≈ 110 µM) with L. donovani, 8.9 µg/mL (≈ 18.5 µM) in the test on L6 cells and 5.5 µg/mL (≈ 11.4 µM) in [2] (setting [7]). Further, in the test with L. donovani, the “L. donovani SI” value is 0.2. Besides, the “T. b. rhodesiense SI” value in [2] was determined as 1.6.

Regarding `O=c1cc(-c2ccc(O)c(O)c2)oc2c(O)c(O[C@@H]3O[C@H](CO)[C@@H](O)[C@H](O)[C@H]3O)cc(O)c12` [Hypolaetin-7-O-glucoside (7), hypolaetin-7-O-glucoside], in the test with T. cruzi, the “T. cruzi SI” value is recorded as 0.4. Also, the IC50 was determined as 49 µg/mL (≈ 106 µM) with T. cruzi, 52 µg/mL (≈ 112 µM) in the test with L. donovani, 19 µg/mL (≈ 40.9 µM) in the test on L6 cells and 5.7 µg/mL (≈ 12.3 µM) in [2] (setting [7]). Moreover, the “L. donovani SI” value with L. donovani is on record as 0.4. Moreover, the “T. b. rhodesiense SI” value in [2] is given as 3.2.

Take `COC(=O)c1cc(O)c(O)c(O)c1` [Methyl gallate (2), methyl gallate]: the “T. cruzi SI” value in the test on T. cruzi was determined as 1.0. The IC50 was 16 µg/mL (≈ 86.9 µM) in the test with T. cruzi; 8.5 µg/mL (≈ 46.2 µM) in the test on L. donovani; 3 µg/mL (≈ 16.3 µM) with P. falciparum [1]; 16 µg/mL (≈ 86.9 µM) in the test on L6 cells; 1.1 µg/mL (≈ 5.97 µM) in test [2] (setting [7]); over 100 µM with epimastigote T. cruzi. The “L. donovani SI” value in the test with L. donovani stood at 1.9. The “P. falciparum IC50” value with P. falciparum [1] amounted to 2.1 µg/mL. In the test with P. falciparum [1], the “P. falciparum SI” value is reported as 7.8. In test [2], the “T. b. rhodesiense SI” value is 15. For the same compound, the “IC50 against P. falciparum” value with P. falciparum [3] was 0.0025 µg/mL (≈ 0.0136 µM). The “inhibition of sn-glycerol-3-phosphate oxidase system” value in test [4] is listed as “inhibited”.

Regarding `O=C(OC[C@@H]1O[C@H](OC(=O)c2cc(O)c(O)c(O)c2)[C@@H](OC(=O)c2cc(O)c(O)c(O)c2)[C@H](OC(=O)c2cc(O)c(O)c(O)c2)[C@H]1OC(=O)c1cc(O)c(O)c(O)c1)c1cc(O)c(O)c(O)c1` [Pentagalloyl-β-glucopyranoside (5), 1,2,3,4,6 pentagalloyl-β-glucopyranoside], in the test with T. cruzi, the “T. cruzi SI” value is reported as 0.5. The 50% inhibitory concentration (IC50) in the test with T. cruzi was 44 µg/mL (≈ 46.8 µM); in the test on L. donovani it was 15 µg/mL (≈ 15.9 µM); in the test with P. falciparum [1], 6.7 µg/mL (≈ 7.12 µM); with L6 cells it was 21 µg/mL (≈ 22.3 µM); in test [2] (setting [7]) it was 20 µg/mL (≈ 21.3 µM). The “L. donovani SI” value with L. donovani was 1.4. Further, the “P. falciparum SI” value in the test on P. falciparum [1] is reported as 3.1. Also, the “T. b. rhodesiense SI” value in test [2] was found to be 1.0.

In the case of `CC/C=C\C/C=C\C/C=C\CCCCCCCc1cc(O)cc(O)c1` [Resorcinol-alkyl (8), 5-[(8Z,11Z,14Z)-heptadeca-8,11,14-trienyl] resorcinol], the “T. cruzi SI” value with T. cruzi is 1.4. Besides, the IC50 in the test on T. cruzi was 9.1 µg/mL (≈ 26.6 µM); in the test with L. donovani it was 2.5 µg/mL (≈ 7.3 µM); with L6 cells it was 13 µg/mL (≈ 38 µM); in test [5], over 11 µg/mL; in test [2] (setting [7]), 5.3 µg/mL (≈ 15.5 µM). For the same compound, the “L. donovani SI” value with L. donovani turned out to be 5.2. Also, the “T. b. rhodesiense SI” value in test [2] is on record as 2.5.

With `Nc1nc(N)nc(Nc2ccc([As]3SCC(CO)S3)cc2)n1` (stereo not drawn) [melarsoprol], the inhibition at 0.072 µg/mL in test [6] came out at 98.4%.
